# Experiment: The drug is tested on Eubacterium hallii strain: DSM3353 for biotransformation. The drug concentrations were measured before and after a 12-h incubation by liquid-chromatography-coupled mass spectrometry (LC–MS)
# Conditions: anaerobutyricum hallii, 2 µM
row,Compound,Bacterial Biotransformation
1,CC[C@@H](CO)NC(=O)[C@@H]1C=C2c3cccc4c3c(cn4C)C[C@H]2N(C)C1.O=C(O)/C=C\C(=O)O [METHYSERGIDE MALEATE],Compound metabolized
2,CN1CCc2cccc3c2[C@H]1Cc1ccc(O)c(O)c1-3 [APOMORPHINE],Compound NOT metabolized

# Experiment: The drug is tested on Bacteroides fragilis strain: ATCC43859 for biotransformation. The drug concentrations were measured before and after a 12-h incubation by liquid-chromatography-coupled mass spectrometry (LC–MS)
# Conditions: 2 µM
row,Compound,Bacterial Biotransformation
1,CC[C@@H](CO)NC(=O)[C@@H]1C=C2c3cccc4c3c(cn4C)C[C@H]2N(C)C1.O=C(O)/C=C\C(=O)O [METHYSERGIDE MALEATE],Compound NOT metabolized
2,CN1CCc2cccc3c2[C@H]1Cc1ccc(O)c(O)c1-3 [APOMORPHINE],Compound NOT metabolized

# Experiment: The drug is tested on Bifidobacterium longum subsp. Infantis strain: CCUG52486 for biotransformation. The drug concentrations were measured before and after a 12-h incubation by liquid-chromatography-coupled mass spectrometry (LC–MS)
# Conditions: 2 µM
row,Compound,Bacterial Biotransformation
1,CC[C@@H](CO)NC(=O)[C@@H]1C=C2c3cccc4c3c(cn4C)C[C@H]2N(C)C1.O=C(O)/C=C\C(=O)O [METHYSERGIDE MALEATE],Compound metabolized
2,CN1CCc2cccc3c2[C@H]1Cc1ccc(O)c(O)c1-3 [APOMORPHINE],Compound NOT metabolized

# Experiment: The drug is tested on Ruminococcus lactaris strain: ATCC29176 for biotransformation. The drug concentrations were measured before and after a 12-h incubation by liquid-chromatography-coupled mass spectrometry (LC–MS)
# Conditions: 2 µM
row,Compound,Bacterial Biotransformation
1,CC[C@@H](CO)NC(=O)[C@@H]1C=C2c3cccc4c3c(cn4C)C[C@H]2N(C)C1.O=C(O)/C=C\C(=O)O [METHYSERGIDE MALEATE],Compound metabolized
2,CN1CCc2cccc3c2[C@H]1Cc1ccc(O)c(O)c1-3 [APOMORPHINE],Compound NOT metabolized

# Conditions: parabacteroides distasonis, 12 h, 2 µM
# Description: The drug is tested on Parabacteroides distasonis strain: ATCC8503 for biotransformation. The drug concentrations were measured before and after a 12-h incubation by liquid-chromatography-coupled mass spectrometry (LC–MS)
row,Compound,Bacterial Biotransformation
1,CC[C@@H](CO)NC(=O)[C@@H]1C=C2c3cccc4c3c(cn4C)C[C@H]2N(C)C1.O=C(O)/C=C\C(=O)O [METHYSERGIDE MALEATE],Compound metabolized
2,CN1CCc2cccc3c2[C@H]1Cc1ccc(O)c(O)c1-3 [APOMORPHINE],Compound NOT metabolized

# Experiment: The drug is tested on Bacteroides xylanisolvens strain: DSM18836 for biotransformation. The drug concentrations were measured before and after a 12-h incubation by liquid-chromatography-coupled mass spectrometry (LC–MS)
# Conditions: 2 µM
row,Compound,Bacterial Biotransformation
1,CC[C@@H](CO)NC(=O)[C@@H]1C=C2c3cccc4c3c(cn4C)C[C@H]2N(C)C1.O=C(O)/C=C\C(=O)O [METHYSERGIDE MALEATE],Compound metabolized
2,CN1CCc2cccc3c2[C@H]1Cc1ccc(O)c(O)c1-3 [APOMORPHINE],Compound NOT metabolized

# Conditions: bacteroides fragilis, 12 h, 2 µM
# Description: The drug is tested on Bacteroides fragilis strain: 3397 (T10) for biotransformation. The drug concentrations were measured before and after a 12-h incubation by liquid-chromatography-coupled mass spectrometry (LC–MS)
row,Compound,Bacterial Biotransformation
1,CC[C@@H](CO)NC(=O)[C@@H]1C=C2c3cccc4c3c(cn4C)C[C@H]2N(C)C1.O=C(O)/C=C\C(=O)O [METHYSERGIDE MALEATE],Compound metabolized
2,CN1CCc2cccc3c2[C@H]1Cc1ccc(O)c(O)c1-3 [APOMORPHINE],Compound NOT metabolized

# Experiment: The drug is tested on Clostridium sporogenes strain: ATCC15579 for biotransformation. The drug concentrations were measured before and after a 12-h incubation by liquid-chromatography-coupled mass spectrometry (LC–MS)
# Conditions: 2 µM
row,Compound,Bacterial Biotransformation
1,CC[C@@H](CO)NC(=O)[C@@H]1C=C2c3cccc4c3c(cn4C)C[C@H]2N(C)C1.O=C(O)/C=C\C(=O)O [METHYSERGIDE MALEATE],Compound metabolized
2,CN1CCc2cccc3c2[C@H]1Cc1ccc(O)c(O)c1-3 [APOMORPHINE],Compound NOT metabolized

# Experiment: The drug is tested on Odoribacter splanchnicus strain: fecal isolate for biotransformation. The drug concentrations were measured before and after a 12-h incubation by liquid-chromatography-coupled mass spectrometry (LC–MS)
# Conditions: 2 µM
row,Compound,Bacterial Biotransformation
1,CC[C@@H](CO)NC(=O)[C@@H]1C=C2c3cccc4c3c(cn4C)C[C@H]2N(C)C1.O=C(O)/C=C\C(=O)O [METHYSERGIDE MALEATE],Compound metabolized
2,CN1CCc2cccc3c2[C@H]1Cc1ccc(O)c(O)c1-3 [APOMORPHINE],Compound NOT metabolized

# Conditions: bacteroides thetaiotaomicron, 12 h, 2 µM
# Description: The drug is tested on Bacteroides thetaiotaomicron strain: 3731 for biotransformation. The drug concentrations were measured before and after a 12-h incubation by liquid-chromatography-coupled mass spectrometry (LC–MS)
row,Compound,Bacterial Biotransformation
1,CC[C@@H](CO)NC(=O)[C@@H]1C=C2c3cccc4c3c(cn4C)C[C@H]2N(C)C1.O=C(O)/C=C\C(=O)O [METHYSERGIDE MALEATE],Compound metabolized
2,CN1CCc2cccc3c2[C@H]1Cc1ccc(O)c(O)c1-3 [APOMORPHINE],Compound NOT metabolized

# Conditions: anaerostipes sp., 12 h, 2 µM
# Description: The drug is tested on Anaerostipes sp. strain: fecal isolate for biotransformation. The drug concentrations were measured before and after a 12-h incubation by liquid-chromatography-coupled mass spectrometry (LC–MS)
row,Compound,Bacterial Biotransformation
1,CC[C@@H](CO)NC(=O)[C@@H]1C=C2c3cccc4c3c(cn4C)C[C@H]2N(C)C1.O=C(O)/C=C\C(=O)O [METHYSERGIDE MALEATE],Compound metabolized
2,CN1CCc2cccc3c2[C@H]1Cc1ccc(O)c(O)c1-3 [APOMORPHINE],Compound NOT metabolized

# Experiment: The drug is tested on Collinsella aerofaciens strain: ATCC25986 for biotransformation. The drug concentrations were measured before and after a 12-h incubation by liquid-chromatography-coupled mass spectrometry (LC–MS)
# Conditions: 2 µM
row,Compound,Bacterial Biotransformation
1,CC[C@@H](CO)NC(=O)[C@@H]1C=C2c3cccc4c3c(cn4C)C[C@H]2N(C)C1.O=C(O)/C=C\C(=O)O [METHYSERGIDE MALEATE],Compound metabolized
2,CN1CCc2cccc3c2[C@H]1Cc1ccc(O)c(O)c1-3 [APOMORPHINE],Compound NOT metabolized

# Experiment: The drug is tested on Clostridium scindens strain: ATCC35704 for biotransformation. The drug concentrations were measured before and after a 12-h incubation by liquid-chromatography-coupled mass spectrometry (LC–MS)
# Conditions: 2 µM
row,Compound,Bacterial Biotransformation
1,CC[C@@H](CO)NC(=O)[C@@H]1C=C2c3cccc4c3c(cn4C)C[C@H]2N(C)C1.O=C(O)/C=C\C(=O)O [METHYSERGIDE MALEATE],Compound metabolized
2,CN1CCc2cccc3c2[C@H]1Cc1ccc(O)c(O)c1-3 [APOMORPHINE],Compound NOT metabolized

# Experiment: The drug is tested on Providencia rettgeri strain: DSM1131 for biotransformation. The drug concentrations were measured before and after a 12-h incubation by liquid-chromatography-coupled mass spectrometry (LC–MS)
# Format: ADME
# Set-up: dose 2 uM, timepoint 0 vs 12 hours
# Conditions: 2 µM
row,Compound,Bacterial Biotransformation
1,CC[C@@H](CO)NC(=O)[C@@H]1C=C2c3cccc4c3c(cn4C)C[C@H]2N(C)C1.O=C(O)/C=C\C(=O)O [METHYSERGIDE MALEATE],Compound metabolized
2,CN1CCc2cccc3c2[C@H]1Cc1ccc(O)c(O)c1-3 [APOMORPHINE],Compound NOT metabolized

# Experiment: The drug is tested on Coprococcus comes strain: ATCC27758 for biotransformation. The drug concentrations were measured before and after a 12-h incubation by liquid-chromatography-coupled mass spectrometry (LC–MS)
# Format: ADME
# Set-up: dose 2 uM, timepoint 0 vs 12 hours
# Conditions: 2 µM
row,Compound,Bacterial Biotransformation
1,CC[C@@H](CO)NC(=O)[C@@H]1C=C2c3cccc4c3c(cn4C)C[C@H]2N(C)C1.O=C(O)/C=C\C(=O)O [METHYSERGIDE MALEATE],Compound metabolized
2,CN1CCc2cccc3c2[C@H]1Cc1ccc(O)c(O)c1-3 [APOMORPHINE],Compound NOT metabolized

# Experiment: The drug is tested on Bacteroides fragilis strain: HMW615 for biotransformation. The drug concentrations were measured before and after a 12-h incubation by liquid-chromatography-coupled mass spectrometry (LC–MS)
# Conditions: 2 µM
row,Compound,Bacterial Biotransformation
1,CC[C@@H](CO)NC(=O)[C@@H]1C=C2c3cccc4c3c(cn4C)C[C@H]2N(C)C1.O=C(O)/C=C\C(=O)O [METHYSERGIDE MALEATE],Compound NOT metabolized
2,CN1CCc2cccc3c2[C@H]1Cc1ccc(O)c(O)c1-3 [APOMORPHINE],Compound NOT metabolized

# Conditions: bacteroides intestinalis, 12 h, 2 µM
# Description: The drug is tested on Bacteroides intestinalis strain: DSM17393 for biotransformation. The drug concentrations were measured before and after a 12-h incubation by liquid-chromatography-coupled mass spectrometry (LC–MS)
row,Compound,Bacterial Biotransformation
1,CC[C@@H](CO)NC(=O)[C@@H]1C=C2c3cccc4c3c(cn4C)C[C@H]2N(C)C1.O=C(O)/C=C\C(=O)O [METHYSERGIDE MALEATE],Compound metabolized
2,CN1CCc2cccc3c2[C@H]1Cc1ccc(O)c(O)c1-3 [APOMORPHINE],Compound NOT metabolized

# Experiment: The drug is tested on Enterobacter cancerogenus strain: ATCC35316 for biotransformation. The drug concentrations were measured before and after a 12-h incubation by liquid-chromatography-coupled mass spectrometry (LC–MS)
# Conditions: 2 µM
row,Compound,Bacterial Biotransformation
1,CC[C@@H](CO)NC(=O)[C@@H]1C=C2c3cccc4c3c(cn4C)C[C@H]2N(C)C1.O=C(O)/C=C\C(=O)O [METHYSERGIDE MALEATE],Compound metabolized
2,CN1CCc2cccc3c2[C@H]1Cc1ccc(O)c(O)c1-3 [APOMORPHINE],Compound NOT metabolized

# Experiment: The drug is tested on Bacteroides caccae strain: ATCC43185 for biotransformation. The drug concentrations were measured before and after a 12-h incubation by liquid-chromatography-coupled mass spectrometry (LC–MS)
# Conditions: 2 µM
row,Compound,Bacterial Biotransformation
1,CC[C@@H](CO)NC(=O)[C@@H]1C=C2c3cccc4c3c(cn4C)C[C@H]2N(C)C1.O=C(O)/C=C\C(=O)O [METHYSERGIDE MALEATE],Compound metabolized
2,CN1CCc2cccc3c2[C@H]1Cc1ccc(O)c(O)c1-3 [APOMORPHINE],Compound NOT metabolized

# Experiment: The drug is tested on Bacteroides finegoldii strain: DSM17565 for biotransformation. The drug concentrations were measured before and after a 12-h incubation by liquid-chromatography-coupled mass spectrometry (LC–MS)
# Conditions: 2 µM
row,Compound,Bacterial Biotransformation
1,CC[C@@H](CO)NC(=O)[C@@H]1C=C2c3cccc4c3c(cn4C)C[C@H]2N(C)C1.O=C(O)/C=C\C(=O)O [METHYSERGIDE MALEATE],Compound metabolized
2,CN1CCc2cccc3c2[C@H]1Cc1ccc(O)c(O)c1-3 [APOMORPHINE],Compound NOT metabolized
